A short description of the data set: Human HepG2 cell viability assay in 384 well format. Format: toxicity, cell-based. On the set-up: dose 125 nL, time 70.5 hour; concentration not given beside the values. The conditions noted are these: HepG2 cells, read-out: Inhibition.

On to `CCN(C(=O)COC)C(c1ccc(Cl)cc1)c1ccccn1` (stereo unspecified), for which the cytotoxicity at 70.5 h was -21.9%.
Regarding `Clc1ccc(CNc2cnn(CCN3CCOCC3)c2)cc1Cl`, the cytotoxicity at 70.5 h is -19.4%.
In the case of `CS(=O)(=O)c1cccc(OCC(=O)N2CCCC2c2ccccc2Cl)c1` (stereo unspecified) it was -2.69%.
With `CCCN(Cc1cnn(C)c1)CC1CCCN(S(C)(=O)=O)C1` (stereo unspecified) the figure was 23.4%.
Regarding `CC(C)N(Cc1cnn(C)c1)CC1CCCN(S(C)(=O)=O)C1` (stereo unspecified), the cytotoxicity at 70.5 h worked out at 10.1%.
On to `Cc1ccc(N2CCCC(N3CCC(N(C)C)CC3)C2=O)cc1` (stereo unspecified), for which the cytotoxicity at 70.5 h came to 13.2%.
With `Cc1ccc(NC(=O)CNc2ccn(CC(N)=O)n2)c(Cl)c1` the figure was -7.52%; with `CC(C(=O)NCC1(c2cccc(Br)c2)CCC1)S(C)(=O)=O` (stereo unspecified), 7%.
In the case of `CC(=O)N1CCN(C(=O)CNc2ccc3sccc3c2)CC1` it was -4.15%; in that of `CC(=O)N1CCN(C(=O)CNc2ccc3ncsc3c2)CC1`, -5.1%.
With `O=C(NCCOCC1CC1)Nc1ccc(F)cc1` the figure was -9.49%.
Regarding `CC(=O)c1ccc(Cl)c(Cl)c1OCC(=O)NC(N)=O`, the cytotoxicity at 70.5 h came out at 14.2%.
With `CC(=O)c1ccc(Cl)c(Cl)c1OCC(=O)NCC(F)(F)F`, the cytotoxicity at 70.5 h was -8.87%.
With `Nc1cc2c(nn1)CCN(C(=O)c1cccnc1Oc1ccccc1)C2` the figure was -8.86%.
In the case of `CC(C)OCc1cccc(NC(=O)N2CCCC(CCC(N)=O)C2)c1` (stereo unspecified) it was 6.13%; in that of `CN(C)C1(CNC(=O)Cc2ccc(F)cc2)CCOCC1`, -5.15%.
In the case of `Nc1cc2c(nn1)CCN(C(=O)c1ccc(Oc3cccnc3)cc1)C2` it was -9.26%.
`CN(C)C1(CNC(=O)C2CCCN2Cc2ccc(F)cc2)CCOCC1` (stereo unspecified): the cytotoxicity at 70.5 h amounted to 6.73%.
With `COC(=O)C1CCN(C(=O)Nc2cc(-n3cccc3)ccc2F)CC1` the figure was -6.77%; with `CC(C)NC(=O)CS(=O)(=O)c1cc2c(cc1Cl)OCCO2`, -3.28%.
Consider `Cn1cc(CNc2cnn(CCO)c2)c(-c2ccncc2)n1`, for which the cytotoxicity at 70.5 h is -5.07%.
With `Cc1ccc(N2CCCC(N3CCC4(CC3)OCCO4)C2=O)cc1` (stereo unspecified) the figure was -7.88%; with `O=C(Nc1cc(-n2cccc2)ccc1F)N1CCCC1`, -11.7%.
With `NC(=O)N1CCCN(C(=O)Nc2cc(-n3cccc3)ccc2F)CC1` the figure was -6.12%.
For the compound `CN(CC1CCCN(S(C)(=O)=O)C1)c1cnn(C)c1` (stereo unspecified), the cytotoxicity at 70.5 h is 18.9%.
In the case of `COc1cncc(N2CCN(Cc3cccn3C)CC2)n1` it was 3.9%; in that of `CCOc1cccnc1C(=O)N1CCC(c2ccccc2OC)C1` (stereo unspecified), -8.54%; in that of `COc1ccccc1C1CCN(C(=O)c2ncccc2OC(C)C)C1` (stereo unspecified), -1.72%.
In the case of `COc1cc(CNC2CCN(c3ccccc3)C2)cc(OC)c1OC` (stereo unspecified) it was -6.84%.
In the case of `COCCn1cc(NCc2cn(C)nc2-c2ccncc2)cn1` it was 21.2%; in that of `CCN(Cc1cnn(C)c1)C(=O)c1ccccc1O`, -6.92%; in that of `N#Cc1cnn(CCN2CCOC(CNc3cccnn3)C2)c1` (stereo unspecified), 4.89%.
With `c1cnnc(NCC2CN(CCn3cncn3)CCO2)c1` (stereo unspecified), the cytotoxicity at 70.5 h is 11.7%.
Take `O=C(c1ccc(O)nc1)N1CCN(C(=O)c2ccc(F)c(F)c2)CC1`: the cytotoxicity at 70.5 h is -2.92%.
Regarding `CN(Cc1cccc(F)c1)C(=O)CS(=O)(=O)Cc1c(Cl)cccc1Cl`, the cytotoxicity at 70.5 h was 5.76%.
In the case of `COc1ccc(C2CCCCCN2Cc2nnc(C)o2)cc1` (stereo unspecified) it was -3.01%.
Turning to `COc1ccccc1N1CCC(CNS(=O)(=O)c2c(C)nn(C)c2C)C1` (stereo unspecified), the cytotoxicity at 70.5 h worked out at 2.25%.
With `Cc1nc(C)c(CC(=O)N2CCC(Oc3ccccc3)CC2)c(=O)[nH]1` the figure was -7.9%; with `CC(C)c1nn(C)c(N(C)C)c1CNC1CCC(O)CC1` (stereo unspecified), -6.96%.
With `O=C(COC1CCCC1)NC(C(=O)Nc1cc[nH]n1)c1ccccc1` (stereo unspecified) the figure was 3.78%; with `c1cc(CN2CCN(Cc3ccon3)C3(CCCCC3)C2)no1`, 4.47%; with `O=C(NCCC1Cc2ccccc2C1)N1CCCC(O)C1` (stereo unspecified), 26.4%.
With `CN(C)c1cccc(C2CCCN2CCCN2CCOC2=O)c1` (stereo unspecified) the figure was 7.84%; with `COc1cc(C)c(CNC(C)c2nc(C)cs2)cc1OC` (stereo unspecified), -2.23%.
For `CC(c1ccccc1Cl)N1CCN(C(=O)c2ccc(=O)[nH]c2)CC1` (stereo unspecified), the cytotoxicity at 70.5 h worked out at 2%.
For the compound `CCN(C)CC1CCN(C(=O)NCCC2Cc3ccccc3C2)C1` (stereo unspecified), the cytotoxicity at 70.5 h was -6.72%.
With `Cc1nnc(CN2CCCC2c2ccc(C(C)(C)C)cc2)o1` (stereo unspecified) the figure was -3.63%; with `Cc1nnc(CN2CCCC2c2ccsc2)o1` (stereo unspecified), -4.6%; with `N#Cc1cc(Cl)ccc1N1CCN(C(=O)C2CCC2)CC1`, -1.06%.
With `CNC(=O)c1cccc(NC(=O)CN2CCCN(S(C)(=O)=O)CC2)c1` the figure was -5.6%; with `CC(C)(NC(=O)c1ccc(-c2ccc(F)cc2)s1)C(N)=O`, 4.62%; with `CCOCCCC(=O)Nc1cccnc1-n1ccnc1C`, -6.87%.
Take `O=C(NCc1ccccc1F)N1CCC(C2OCCO2)CC1`: the cytotoxicity at 70.5 h is -7.09%.
In the case of `COc1ccc(CC(=O)N2CCCN(c3ccc(C#N)cc3)CC2)cc1` it was -2.17%; in that of `COc1cccc(N2CCN(CCC(=O)NC3CCCC3)CC2)c1`, -5.97%.
In the case of `Cc1nc(CC(=O)N2CCCN(c3ccc(C#N)cc3)CC2)cs1` it was -8.68%; in that of `Cc1noc(C(C)C)c1C(=O)NS(=O)(=O)c1ccc(Cl)cc1`, -3.31%; in that of `CN(C(=O)Cc1ccc(NC(=O)NC2CCC2)cc1)c1ccccc1`, 38.2%.
For the compound `CC(C)(O)CN1CCN(C(=O)c2cc3ccccc3c(=O)[nH]2)CC1`, the cytotoxicity at 70.5 h was -3.18%.
Turning to `CCc1nccn1C1CCCN(C(=O)c2cn3c(C)cccc3n2)C1` (stereo unspecified), the cytotoxicity at 70.5 h was -3.89%.
In the case of `O=C(Cc1ccc2c(c1)CCO2)N1CCCCC1Cn1cccn1` (stereo unspecified), the cytotoxicity at 70.5 h was -2.84%.
For the compound `COCCN(C)C(=O)Nc1ccc2c(ccn2CCOC)c1`, the cytotoxicity at 70.5 h turned out to be 32.1%.
Take `CCCn1ccc2ccc(NC(=O)N(C)CCOC)cc21`: the cytotoxicity at 70.5 h was -1.44%.
With `CC(=O)NC(C)c1ccc(OCC2CC2)c(F)c1` (stereo unspecified) the figure was -6.57%; with `COCC(=O)N(C)Cc1ccc(Cl)c(Cl)c1`, -12.6%; with `COCCn1ccc(NC(=O)Nc2cccnc2)n1`, -2.62%.
Take `COc1ccc(CC(=O)N2CCCCC2Cn2cccn2)cc1OC` (stereo unspecified): the cytotoxicity at 70.5 h is -2.2%.
Take `CN(Cc1nccn1CC(F)(F)F)C(=O)c1cccc(C#N)c1`: the cytotoxicity at 70.5 h was -7.89%.
With `Cc1noc(C(C)C)c1C(=O)NS(=O)(=O)c1ccc2c(c1)OCCCO2` the figure was -9.35%; with `Cc1noc(Cl)c1CCC(=O)N1CCCCC1Cn1cccn1` (stereo unspecified), 1.4%.
For `Cc1cnn(C2CCCN(C(=O)c3cc(C)sc3C)C2)c1` (stereo unspecified), the cytotoxicity at 70.5 h is -2.62%.
On to `Cc1cc(C)n(CCCNC(=O)C(C)NC(=O)c2ccccc2Cl)n1` (stereo unspecified), for which the cytotoxicity at 70.5 h is -8.83%.
In the case of `CN(Cc1cnn(C)c1)C(=O)Cn1c(CS(C)(=O)=O)nc2ccccc21` it was -12.9%; in that of `CCc1noc(C(C)N2CCN(c3ccc(C#N)cn3)CC2)n1` (stereo unspecified), -2.7%.
In the case of `Cc1nc(C2(NCC(=O)NCCc3cccs3)CCCC2)no1` it was -9.55%.
With `Cc1cc(C)n(CC(C)CNC(=O)[C@@H](C)NC(=O)OC(C)(C)C)n1` (stereo partly specified) the figure was -27.5%.
Consider `COc1ccc(CCN2CCN(C(=O)c3scnc3C)CC2)cc1`, for which the cytotoxicity at 70.5 h was -5.8%.
For the compound `O=C(NCCCNC(=O)c1cccc(O)c1)Nc1ccc(F)cc1F`, the cytotoxicity at 70.5 h was -2.92%.
With `CCOCCCC(=O)NCCC(=O)N1CCN(c2ccccn2)CC1` the figure was -13.4%.
In the case of `Cc1noc(C(C)N2CCN(CCC(=O)N3CCCCC3)CC2)n1` (stereo unspecified) it was -8.82%.
As to `CCc1nc(CC(=O)NCC(Cc2ccc(F)cc2)C(N)=O)cs1` (stereo unspecified), the cytotoxicity at 70.5 h was 29.6%.
With `Cc1cc(C)n(CCCNC(=O)[C@@H](C)NC(=O)OC(C)(C)C)n1` the figure was -14.4%; with `CC(C)Cc1cc(C(=O)NCCc2ccc(S(C)(=O)=O)cc2)[nH]n1`, -7.03%; with `CC(C)(C)c1n[nH]c(C2CN(C(=O)c3csnn3)CCO2)n1` (stereo unspecified), 22.6%.
With `CC(c1nc(C(C)(C)C)no1)N1CCN(CC(=O)N2CCOCC2)CC1` (stereo unspecified) the figure was -16.5%.
For the compound `CCOCCCNC(=O)c1ccccc1S(C)(=O)=O`, the cytotoxicity at 70.5 h was -15.5%.
In the case of `CCOC(CC)C(=O)NCCC(=O)N1CCN(c2ccccn2)CC1` (stereo unspecified) it was -14.2%; in that of `COCCOCC(=O)Nc1ccc(Br)cc1F`, -11%.
With `O=C(NCCc1nnc2n1CCC2)NCC1(c2cccc(F)c2)CC1` the figure was -29.8%.
With `Cc1noc(C(C)C)c1C(=O)N1CCOCC1CC(=O)c1ccco1` (stereo unspecified), the cytotoxicity at 70.5 h is -5.66%.
As to `CCc1cnc(CN(C(C)=O)C2CCN(CCS(C)(=O)=O)C2)o1` (stereo unspecified), the cytotoxicity at 70.5 h was found to be 32.1%.
As to `CCN(CC)C(=O)c1ccc(-c2ccsc2)nc1C`, the cytotoxicity at 70.5 h is -6.78%.
Turning to `O=C(CN1CCCC1Cn1cncn1)Nc1cccnc1` (stereo unspecified), the cytotoxicity at 70.5 h was -7.61%.
As to `CCOc1ncccc1NC(=O)c1sccc1C`, the cytotoxicity at 70.5 h was -7.66%.
In the case of `Cc1cc(C(=O)N2CCCC2c2nnc3n2CCCCC3)no1` (stereo unspecified) it was -7.37%; in that of `CNC(=O)COc1ccc(CNCc2ccc(F)cc2F)cc1`, -3.23%.
With `CC1CCN(CCNC(=O)c2cncnc2C(C)C)CC1` the figure was -5.55%; with `Cc1ccc(CNC(=O)Nc2cc(C(F)(F)F)c[nH]c2=O)cn1`, -0.26%; with `Cc1cccc(CC(=O)N2CCCCC2CN)c1` (stereo unspecified), -3.78%.
`NCC1CCCCN1C(=O)Cc1ccc(F)c(F)c1` (stereo unspecified): the cytotoxicity at 70.5 h was -9.5%.
In the case of `Cc1nn(C)c(Cl)c1CNCc1cccnc1N1CCN(C)CC1` it was 2.87%.

(Values after ChEMBL document CHEMBL3507680, “University of Dundee, Gates Library screen for HepG2 cell viability”.)
